What follows are compounds tested against T1, human GPR43 (Homo sapiens, UniProt O15552) (assay: Ca-Flux Functional Assay: Determination of Agonist/Positive Allosteric Modulator (PAM) Activity). Settings: CHO-K1 Gα16 cells stably expressing human GPR43; compound added in the presence of EC20 sodium acetate; intracellular Ca2+ by FLIPR; agonist/PAM activity not distinguished.
T1 construct: expressed in transfected cells
T1 sequence (O15552 1-330): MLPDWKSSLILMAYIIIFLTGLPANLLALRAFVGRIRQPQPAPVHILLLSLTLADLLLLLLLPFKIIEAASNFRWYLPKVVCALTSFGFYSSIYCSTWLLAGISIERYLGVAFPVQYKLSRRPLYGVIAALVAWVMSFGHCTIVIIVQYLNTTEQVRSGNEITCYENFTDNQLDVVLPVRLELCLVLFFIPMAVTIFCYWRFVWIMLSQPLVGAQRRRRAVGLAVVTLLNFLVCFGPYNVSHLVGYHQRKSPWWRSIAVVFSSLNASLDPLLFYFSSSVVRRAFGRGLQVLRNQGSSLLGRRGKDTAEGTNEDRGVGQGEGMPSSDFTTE
Assay type: cell-based
Procedure: Ca-Flux Functional Assay: Determination of Agonist/Positive Allosteric Modulator (PAM) Activity
GPR43 agonist/PAM activity was determined by measuring changes in intracellular calcium levels using a Ca^2+ sensitive fluorescent dye. The changes in fluorescent signal were monitored by FLIPR (manufactured by Molecular Devices). GPR43 mediated increases in intracellular Ca^2+ concentration were readily detected upon activation with sodium acetate. Prior to the assay (24 hours), CHO-K1 Gα16 cells stably expressing human GPR43 were-seeded in cell culture medium in black, clear-bottom 384-well plates (Corning Inc) and grown overnight at 37° C., 5% CO2. On the day of the assay, cell culture media was removed and cells were loaded with Calcium 5 Dye (Molecular Devices) diluted in HBSS containing 25 mM HEPES, 2.5 mM Probenecid, 0.1% BSA for 1 hour at 37° C., 5% CO2. 10 point half log concentration response curves of sodium acetate from 10 mM were conducted prior to the testing of compounds to calculate the sodium acetate concentration that produces 20% of the maximal response (EC20). Test compounds (at to point half log concentration response curves from 10 μM) were added in the presence of sodium acetate to achieve a final concentration that produces approximately 20% maximal response as calculated from the previous experiment. The changes in fluorescent signal were monitored by FLIPR upon addition of the compound/EC20 sodium acetate mix. The EC50 values were determined from ten point concentration response curves. Curves were generated using the average of two wells for each data point.
The above assay detects both GPR43 receptor agonists and positive allosteric modulators of the GPR43 receptor, without distinguishing between the two. Activity in either regard is useful in the treatment of conditions associated with GPR43 receptor activity.

Row | EC50 | SMILES
1 | 337 nM | Nc1c(S(=O)(=O)c2ccccc2)c2cncnc2n1C1CCCCC1 [Example 16]
2 | 1250 nM | Nc1c(S(=O)(=O)N2CCC(Cc3ccccc3)CC2)c2nccnc2n1C1CCCCC1 [Example 81, 7-(4-benzylpiperidine-1-sulfonyl)-5-cyclohexyl-5H-pyrrolo[2,3-b]pyrazin-6-amine]
3 | 5970 nM | CC(=O)N(C)C1CCN(S(=O)(=O)c2c(N)n(C3CCCCC3)c3nccnc23)CC1 [Example 79, N-(1-{6-amino-5-cyclohexyl-5H-pyrrolo[2,3-b]pyrazine-7-sulfonyl}piperidin-4-yl)-N-methylacetamide]
4 | 78 nM | COc1ccc(S(=O)(=O)c2c(N)n(C3CCCCC3)c3nccnc23)cc1 [Example 108, 5-cyclohexyl-7-[(4-methoxybenzene)-sulfonyl]-5H-pyrrolo[2,3-b]pyrazin-6-amine]
5 | 8380 nM | CN(C1CCCCC1)S(=O)(=O)c1c(N)n(C2CCCCC2)c2nccnc12 [Example 71, 6-amino-N,5-dicyclohexyl-N-methyl-5H-pyrrolo[2,3-b]pyrazine-7-sulfonamide]
6 | 122 nM | Cc1ccc(S(=O)(=O)c2c(N)n(C3CCCCC3)c3nccnc23)cc1 [Example 3]
7 | 1950 nM | Nc1c(S(=O)(=O)NCC2CCCO2)c2nccnc2n1C1CCCCC1 (centres unmarked) [Example 96, 6-amino-5-cyclohexyl-N-(oxolan-2-ylmethyl)-5H-pyrrolo[2,3-b]pyrazine-7-sulfonamide]
8 | 3050 nM | Nc1c(S(=O)(=O)N2CCC(CO)CC2)c2nccnc2n1C1CCCCC1 [Example 106, (1-{6-amino-5-cyclohexyl-5H-pyrrolo[2,3-b]pyrazine-7-sulfonyl}piperidin-4-yl)methanol]
9 | 5700 nM | Nc1c(S(=O)(=O)N2CCC(O)CC2)c2nccnc2n1C1CCCCC1 [Example 93, 1-{6-amino-5-cyclohexyl-5H-pyrrolo[2,3-b]pyrazine-7-sulfonyl}piperidin-4-ol]
10 | 1060 nM | Nc1c(S(=O)(=O)N2CCC(Oc3ccccc3)CC2)c2nccnc2n1C1CCCCC1 [Example 85, 5-cyclohexyl-7-(4-phenoxypiperidine-1-sulfonyl)-5H-pyrrolo[2,3-b]pyrazin-6-amine]
11 | 381 nM | Nc1c(S(=O)(=O)c2ccccc2)c2cccnc2n1C1CCCCC1 [Example 15, 3-(benzenesulfonyl)-1-cyclohexyl-1H-pyrrolo[2,3-b]pyridin-2-amine]
12 | 821 nM | Nc1c(S(=O)(=O)NCCC(F)(F)F)c2nccnc2n1C1CCCCC1 [Example 82, 6-amino-5-cyclohexyl-N-(3,3,3-trifluoropropyl)-5H-pyrrolo[2,3-b]pyrazine-7-sulfonamide]
13 | 1410 nM | CCCN(C)S(=O)(=O)c1c(N)n(C2CCCCC2)c2nccnc12 [Example 60, 6-amino-5-cyclohexyl-N-methyl-N-propyl-5H-pyrrolo[2,3-b]pyrazine-7-sulfonamide]
14 | 259 nM | Nc1c(S(=O)(=O)N2CCCCC2)c2nccnc2n1C1CCCCC1 [Example 57, 5-cyclohexyl-7-(piperidin-1-ylsulfonyl)-5H-pyrrolo[2,3-b]pyrazin-6-amine]
15 | 118 nM | Nc1c(S(=O)(=O)c2cccs2)c2nccnc2n1C1CCCCC1 [Example 8, 5-cyclohexyl-7-(thiophene-2-sulfonyl)-5H-pyrrolo[2,3-b]pyrazin-6-amine]
16 | 2590 nM | COC(=O)Nc1c(S(=O)(=O)c2ccccc2)c2nccnc2n1C1CCCCC1 [Example 24, methyl N-[7-(benzenesulfonyl)-5-cyclohexyl-5H-pyrrolo[2,3-b]pyrazin-6-yl]carbamate]
17 | 2810 nM | Nc1c(S(=O)(=O)N2CCN(C(=O)c3ccc(F)cc3)CC2)c2nccnc2n1C1CCCCC1 [Example 98, 5-cyclohexyl-7-{4-[(4-fluorophenyl)carbonyl]piperazine-1-sulfonyl}-5H-pyrrolo[2,3-b]pyrazin-6-amine]
18 | 753 nM | Cc1ccc(S(=O)(=O)c2c(N)n(C3CCCCC3)c3ncccc23)cc1 [Example 11, 1-cyclohexyl-3-[(4-methylbenzene)sulfonyl]-1H-pyrrolo[2,3-b]pyridin-2-amine]

The next lines start with the compound.

Row | SMILES | EC50
19 | CC1(C)CC1Cn1c(N)c(S(=O)(=O)c2ccccc2)c2nccnc21 (centres unmarked) [Example 56, 5-((2,2-dimethylcyclopropyl)methyl)-7-(phenylsulfonyl)-5H-pyrrolo[2,3-b]pyrazin-6-amine] | 1300 nM
20 | CCCCn1c(N)c(S(=O)(=O)c2ccccc2)c2nccnc21 [Example 45, 5-butyl-7-5(phenylsulfonyl)-5H-pyrrolo[2,3-b]pyrazin-6-amine] | 2890 nM
21 | Nc1c(S(=O)(=O)c2ccccc2)c2ncccc2n1C1CCCCC1 [Example 9, 3-(benzenesulfonyl)-1-cyclohexyl-1H-[3,2-b]pyridin-2-amine] | 1250 nM
22 | Nc1c(S(=O)(=O)c2ccccc2)c2ncnc(OCc3ccccc3)c2n1C1CCC(F)(F)CC1 [Example 30, 7-(benzenesulfonyl)-4-(benzyloxy)-5-(4,4-difluorocyclohexyl)-5H-pyrrolo[3,2-d]pyrimidin-6-amine] | 199 nM
23 | N#Cc1ncnc2c(S(=O)(=O)c3ccccc3)c(N)n(C3CCCCC3)c12 [Example 37, 6-amino-7-(benzenesulfonyl)-5-cyclohexyl-5H-pyrrolo[3,2-d]pyrimidine-4-carbonitrile] | 468 nM
24 | Nc1c(S(=O)(=O)c2ccccc2)c2nccnc2n1CCc1ccccc1 [Example 46, 5-phenethyl-7-(phenylsulfonyl)-5H-pyrrolo[2,3-b]pyrazin-6-amine] | 5260 nM
25 | Nc1c(S(=O)(=O)c2ccccc2)c2ncccc2n1C1CCC(F)(F)CC1 [Example 21, 3-(benzenesulfonyl)-1-(4,4-difluorocyclohexyl)-1H-pyrrolo[3,2-b]pyridin-2-amine] | 282 nM
26 | CN(C)c1ncnc2c(S(=O)(=O)c3ccccc3)c(N)n(C3CCCCC3)c12 [Example 34, 7-(benzenesulfonyl)-5-cyclohexyl-4-N,4-N-dimethyl-5H-pyrrolo[3,2-d]pyrimidine-4,6-diamine] | 5980 nM
27 | Nc1c(S(=O)(=O)c2ccccc2)c2nccnc2n1C1CCC(F)(F)CC1 [Example 49, 5-(4,4-difluoro-cyclohexyl)-7-(phenylsulfonyl)-5H-pyrrolo[2,3-b]pyrazin-6-amine] | 211 nM
28 | COc1ncnc2c(S(=O)(=O)c3ccccc3)c(N)n(C3CCCCC3)c12 [Example 26, 7-(benzenesulfonyl)-5-cyclohexyl-4-methoxy-5H-pyrrolo[3,2-d]pyrimidin-6-amine] | 79 nM
29 | Nc1c(S(=O)(=O)c2ccccc2)c2nccnc2n1CCC1CCC1 [Example 50, 5-(2-cyclobutylethyl)-7-(phenylsulfonyl)-5H-pyrrolo[2,3-b]pyrazin-6-amine] | 760 nM
30 | CC(C)(C)CCn1c(N)c(S(=O)(=O)c2ccccc2)c2nccnc21 [Example 52, 5-(3,3-dimethylbutyl)-7-(phenylsulfonyl)-5H-pyrrolo[2,3-b]pyrazin-6-amine] | 822 nM
31 | Nc1c(S(=O)(=O)c2ccccc2)c2nccnc2n1[C@@H]1C[C@H]2CC[C@@H]1C2 (relative stereo) [Example 53, 5-((1R*,2R*,4S*)-bicyclo[2.2.1]heptan-2-yl)-7-(phenylsulfonyl)-5H-pyrrolo[2,3-b)pyrazin-6-amine] | 275 nM
32 | Nc1c(S(=O)(=O)c2ccccc2)c2cnccc2n1C1CCCCC1 [Example 23, 3-(benzenesulfonyl)-1-cyclohexyl-1H-pyrrolo[3,2-c]pyridin-2-amine] | 1050 nM
